Source: ChEMBL document CHEMBL3045024, “Synthesis, structure and insecticidal activities of some novel amides containing N-pyridylpyrazole moeities” (2012)
Active and inactive are the calls of the source. The rule behind the calls is not given here.

What was measured:
Mythimna separata [1] = experiment: Insecticidal activity against fourth-instar larvae of Mythimna separata (Oriental armyworm) reared on compound pre-treated corn leaves assessed as mortality at 200 ug/mL measured 72 hr post compound treatment by leaf-dipping assay; assay type: functional
Culex pipiens pallens = experiment: Insecticidal activity against Culex pipiens pallens (mosquito) fourth-instar larvae assessed as mortality at 2 ug/mL measured 72 hr post compound treatment; assay type: functional
Mythimna separata [2] = experiment: Insecticidal activity against fourth-instar larvae of Mythimna separata (Oriental armyworm) reared on compound pre-treated corn leaves assessed as mortality at 50 ug/mL measured 72 hr post compound treatment by leaf-dipping assay; assay type: functional
Mythimna separata [3] = experiment: Insecticidal activity against fourth-instar larvae of Mythimna separata (Oriental armyworm) reared on compound pre-treated corn leaves assessed as mortality at 100 ug/mL measured 72 hr post compound treatment by leaf-dipping assay; assay type: functional
Plutella xylostella [4] = experiment: Insecticidal activity against Plutella xylostella (diamondback moth) second-instar larvae infested on compound pre-treated cabbage leaves assessed as mortality at 25 ug/mL measured 3 days post compound treatment by leaf-dipping assay; assay type: functional
Plutella xylostella [5] = experiment: Insecticidal activity against Plutella xylostella (diamondback moth) second-instar larvae infested on compound pre-treated cabbage leaves assessed as mortality at 50 ug/mL measured 3 days post compound treatment by leaf-dipping assay; assay type: functional
Spodoptera exigua [6] = experiment: Insecticidal activity against Spodoptera exigua third-instar larvae infested on compound pre-treated cabbage leaves assessed as mortality at 50 ug/mL measured 3 days post compound treatment by leaf-dipping assay; assay type: functional
Spodoptera exigua [7] = experiment: Insecticidal activity against Spodoptera exigua third-instar larvae infested on compound pre-treated cabbage leaves assessed as mortality at 25 ug/mL measured 3 days post compound treatment by leaf-dipping assay; assay type: functional
Plutella xylostella [8] = experiment: Insecticidal activity against Plutella xylostella (diamondback moth) second-instar larvae infested on compound pre-treated cabbage leaves assessed as mortality at 100 ug/mL measured 3 days post compound treatment by leaf-dipping assay; assay type: functional
Plutella xylostella [9] = experiment: Insecticidal activity against Plutella xylostella (diamondback moth) second-instar larvae infested on compound pre-treated cabbage leaves assessed as mortality at 200 ug/mL measured 3 days post compound treatment by leaf-dipping assay; assay type: functional
Spodoptera exigua [10] = experiment: Insecticidal activity against Spodoptera exigua third-instar larvae infested on compound pre-treated cabbage leaves assessed as mortality at 200 ug/mL measured 3 days post compound treatment by leaf-dipping assay; assay type: functional
Spodoptera exigua [11] = experiment: Insecticidal activity against Spodoptera exigua third-instar larvae infested on compound pre-treated cabbage leaves assessed as mortality at 100 ug/mL measured 3 days post compound treatment by leaf-dipping assay; assay type: functional
Mythimna separata [12] = experiment: Insecticidal activity against fourth-instar larvae of Mythimna separata (Oriental armyworm) reared on compound pre-treated corn leaves assessed as mortality at 10 ug/mL measured 72 hr post compound treatment by leaf-dipping assay; assay type: functional
Mythimna separata [13] = experiment: Insecticidal activity against fourth-instar larvae of Mythimna separata (Oriental armyworm) reared on compound pre-treated corn leaves assessed as mortality at 25 ug/mL measured 72 hr post compound treatment by leaf-dipping assay; assay type: functional
Mythimna separata [14] = experiment: Insecticidal activity against fourth-instar larvae of Mythimna separata (Oriental armyworm) reared on compound pre-treated corn leaves assessed as mortality at 5 ug/mL measured 72 hr post compound treatment by leaf-dipping assay; assay type: functional
Mythimna separata [15] = experiment: Insecticidal activity against fourth-instar larvae of Mythimna separata (Oriental armyworm) reared on compound pre-treated corn leaves assessed as induction of abnormal symptoms at 10 ug/mL measured 36 hr post compound treatment by leaf-dipping assay; assay type: functional, organism-based

Row | SMILES | mortality at 200 µg/mL (Mythimna separata [1]) | mortality at 2 µg/mL (Culex pipiens pallens) | mortality at 50 µg/mL (Mythimna separata [2]) | mortality at 100 µg/mL (Mythimna separata [3]) | mortality at 25 µg/mL (Plutella xylostella [4]) | mortality at 50 µg/mL (Plutella xylostella [5]) | mortality at 50 µg/mL (Spodoptera exigua [6]) | mortality at 25 µg/mL (Spodoptera exigua [7]) | mortality at 100 µg/mL (Plutella xylostella [8]) | mortality at 200 µg/mL (Plutella xylostella [9]) | mortality at 200 µg/mL (Spodoptera exigua [10]) | mortality at 100 µg/mL (Spodoptera exigua [11]) | mortality at 10 µg/mL (Mythimna separata [12]) | mortality at 25 µg/mL (Mythimna separata [13]) | mortality at 5 µg/mL (Mythimna separata [14]) | Activity (Mythimna separata [15])
1 | O=C(Nc1ccc([N+](=O)[O-])cc1)c1cc(Br)nn1-c1ncccc1Cl | 100% | 20% | 20% | 90% |  |  |  |  |  |  |  |  |  |  |  | 
2 | O=C(Nc1ccc([N+](=O)[O-])cc1Br)c1cc(Br)nn1-c1ncccc1Cl | 100% | 40% | 30% | 100% | 90% | 96% | 100% | 100% | 98% | 100% | 100% | 100% |  |  |  | 
3 | Cc1cccc(C)c1NC(=O)c1cc(Br)nn1-c1ncccc1Cl | 100% |  | 40% | 80% |  |  |  |  |  |  |  |  |  |  |  | 
4 | O=C(Nc1ccc(F)c(Cl)c1)c1cc(Br)nn1-c1ncccc1Cl | 100% |  |  | 0% |  |  |  |  |  |  |  |  |  |  |  | 
5 | Cc1cc([N+](=O)[O-])ccc1NC(=O)c1cc(Br)nn1-c1ncccc1Cl | 100% | 40% | 100% | 100% |  |  |  |  |  |  |  |  | 50% | 80% |  | 
6 | CCOc1ccc(NC(=O)c2cc(Br)nn2-c2ncccc2Cl)cc1 | 100% | 30% |  | 0% |  |  |  |  |  |  |  |  |  |  |  | 
7 | O=C(Nc1cc(Cl)ccc1Cl)c1cc(Br)nn1-c1ncccc1Cl | 0% | 10% |  |  |  |  |  |  |  |  |  |  |  |  |  | 
8 | Cc1cc(Cl)cc([N+](=O)[O-])c1NC(=O)c1cc(Br)nn1-c1ncccc1Cl | 100% | 20% | 100% | 100% | 76% | 84% | 95% | 92% | 89% | 95% | 98% | 100% |  | 60% |  | 
9 | O=C(Nc1ccc([N+](=O)[O-])cc1Cl)c1cc(Br)nn1-c1ncccc1Cl | 100% | 80% | 100% | 100% |  | 0% | 78% | 65% | 72% | 78% | 91% | 86% | 80% | 100% | 0% | Active
10 | O=C(Nc1cccc(Cl)c1)c1cc(Br)nn1-c1ncccc1Cl | 0% |  |  |  |  |  |  |  |  |  |  |  |  |  |  | 
11 | Cc1cc(Br)cc(C)c1NC(=O)c1cc(Br)nn1-c1ncccc1Cl | 100% | 30% | 100% | 100% |  | 0% | 89% | 93% | 72% | 89% | 100% | 100% | 30% | 100% |  | 
12 | O=C(Nc1ccc(I)cc1)c1cc(Br)nn1-c1ncccc1Cl | 100% | 100% | 50% | 100% |  |  |  |  |  |  |  |  |  |  |  | 
13 | Cc1ccc(NC(=O)c2cc(Br)nn2-c2ncccc2Cl)c(C)c1 | 100% |  | 0% | 70% |  |  |  |  |  |  |  |  |  |  |  | 
14 | Cc1cccc([N+](=O)[O-])c1NC(=O)c1cc(Br)nn1-c1ncccc1Cl | 100% | 50% | 20% | 80% |  |  |  |  |  |  |  |  |  |  |  | 
15 | O=C(Nc1ccc(Cl)cc1)c1cc(Br)nn1-c1ncccc1Cl | 100% | 10% | 100% | 100% | 97% | 100% | 100% | 100% | 98% | 100% | 100% | 100% | 0% | 70% |  | 
16 | Cc1cc(Cl)cc(C)c1NC(=O)c1cc(Br)nn1-c1ncccc1Cl | 100% | 30% | 100% | 100% | 94% | 97% | 98% | 94% | 100% | 100% | 100% | 100% | 20% | 80% |  | 
17 | O=C(Nc1ccc(Cl)cc1[N+](=O)[O-])c1cc(Br)nn1-c1ncccc1Cl | 10% | 40% |  |  |  |  |  |  |  |  |  |  |  |  |  | 
18 | O=C(Nc1ccc(F)cc1)c1cc(Br)nn1-c1ncccc1Cl | 100% | 0% | 100% | 100% | 88% | 99% | 92% | 96% | 98% | 100% | 95% | 100% |  | 50% |  | 
19 | CNC(=O)c1cc(Cl)cc(C)c1NC(=O)c1cc(Br)nn1-c1ncccc1Cl [CHLORANTRANILIPROLE] |  | 100% |  |  | 94% | 100% | 100% | 100% |  |  |  |  |  |  | 100% | Active
20 | Cc1cc([N+](=O)[O-])cc(Cl)c1NC(=O)c1cc(Br)nn1-c1ncccc1Cl | 100% |  | 100% | 100% |  |  |  |  |  |  |  |  | 30% | 70% |  | 
